“And” between values parts separate entries of the source, which are not always exact repeats. Identical values can stand only once. Peptide text beside a SMILES is read from it.
Columns and labels:
[1] = Serum pharmacokinetics of CDPs after oral administration of DHG (targeted LC-MS, noncompartmental analysis); conditions: for AUC0–24h / C max / T max: serum, mice; for time remained detectable in serum: serum/blood after oral DHG, sampled to 24 h
Glu-induced HT-22 cells = assay: Neuroprotection in Glu-injured HT-22 cells (CCK-8 cell viability); conditions: for cell viability in Glu-injured HT-22 cells: 50 μM (stated for cyclo(Hyp-Ala)), 4 h pretreatment, then 20 mM Glu 24 h, model group 40.759 ± 1.939%; for Cell viability(%) in Glu-induced HT-22 cells: Glu-only model (0 μM) 40.759±1.939
H2O2-induced HT-22 cells = assay: Neuroprotection in H2O2-injured HT-22 cells (CCK-8 cell viability); conditions: for Cell viability(%) in H2O2-induced HT-22 cells: compound 50 μM, H2O2-only model (0 μM) 48.645±0.347
[2] = Concentrations of CDPs in stomach, small intestine and cecum contents after oral DHG (targeted spatiotemporal metabolomics); assay type: in vivo, C57 mice
Protocol: The supernatant was dried using N2.
For gastrointestinal content analysis, freeze-dried powders (1 mg each) of stomach, small intestine, and cecum contents collected over the 0–24 h postadministration period were accurately weighed. The samples were extracted using the same pretreatment procedure as applied for DHG, namely, ultrasonication with 75% methanol for 30 min at room temperature, followed by centrifugation (13,500 rpm, 10 min). The supernatants were collected, dried under nitrogen, and reconstituted in 75% methanol for LC–MS analysis. Quantitation was performed against the 12-point calibration curves established above, ensuring consistency with the DHG quantitation workflow. Samples from different time points were analyzed individually to characterize the temporal distribution of CDPs within each gastrointestinal compartment.

[3] = FBMN analysis of short peptides in small intestine contents and serum after oral DHG; conditions: for time detected in serum (FBMN): time points 0.5-4 h after oral DHG; for Peptide signal (feature intensity) in the small intestine, 30 min / Peptide signal (feature intensity) in the small intestine, 60 min / Peptide signal (feature intensity) in the small intestine, 120 min / Peptide signal (feature intensity) in the small intestine, 240 min: small intestine contents, C57 mice, FBMN feature intensity, peptides smaller than 690 Da; for Peptide signal (feature intensity) in the small intestine, 30 min: 30 min after oral DHG; for Peptide signal (feature intensity) in the small intestine, 60 min: 60 min after oral DHG; for Peptide signal (feature intensity) in the small intestine, 120 min: 120 min after oral DHG; for Peptide signal (feature intensity) in the small intestine, 240 min: 240 min after oral DHG

SMILES | AUC0–24h ([1]; oral DHG 1000 mg/kg) | C max ([1]; oral DHG 1000 mg/kg) | T max ([1]; oral DHG 1000 mg/kg) | Peptide signal (feature intensity) in the small intestine, 30 min [3] | Peptide signal (feature intensity) in the small intestine, 60 min [3] | Peptide signal (feature intensity) in the small intestine, 120 min [3] | Peptide signal (feature intensity) in the small intestine, 240 min [3] | Cell viability(%) in Glu-induced HT-22 cells (Glu-induced HT-22 cells; compound 25 μM) | Cell viability(%) in H2O2-induced HT-22 cells (H2O2-induced HT-22 cells) | Cell viability(%) in Glu-induced HT-22 cells (Glu-induced HT-22 cells; compound 50 μM) | other results
O=C1N[C@@H](Cc2ccccc2)C(=O)N2C[C@@H](O)C[C@@H]12 [cyclo(Phe-Hyp)] | 263.2271 ng·h/mL | 51.2931 ng/mL | 60 min |  |  |  |  | 56.084±2.124% | 63.241±3.395% |  | cell viability in Glu-injured HT-22 cells (Glu-induced HT-22 cells): 60.206 ± 4.409 % cell viability; cecum concentration at 8 h compared with peak levels in stomach and small intestine [2]: surpassed the peak levels observed in the stomach and small intestine; time detected in serum (FBMN) [3]: 0.5 to 4 h
O=C1N[C@@H](Cc2cnc[nH]2)C(=O)N2CCC[C@@H]12 [cyclo(Pro-His), cyclo(His-Pro)] | 13.9981 ng·h/mL | 1.9830 ng/mL | 30 min |  |  |  |  | 52.701±4.050% | 55.307±7689% | 55.361±5.121% | 
CC(C)C[C@H](NC(=O)[C@@H](N)[C@@H](C)O)C(=O)O [Thr-Leu] (H-Thr-Leu-OH) |  |  |  | 0.00E+00 | 4.45E+06 | 0.00E+00 | 8.43E+06 |  |  |  | 
CC(C)[C@H](NC(=O)[C@@H](N)Cc1ccc(O)cc1)C(=O)O [Tyr-Val] (H-Tyr-Val-OH) |  |  |  | 2.96E+06 | 1.48E+06 | 0.00E+00 | 0.00E+00 |  |  |  | 
CC(C)[C@H](NC(=O)[C@@H](N)CO)C(=O)O [Ser-Val] (H-Ser-Val-OH) |  |  |  | 0.00E+00 | 5.23E+06 | 0.00E+00 | 2.48E+07 |  |  |  | 
O=C(O)C(Cc1ccccc1)NC(=O)C1CCCN1 (stereo not drawn) [Pro-Phe] (H-Pro-Phe-OH; configuration not given here) |  |  |  | 9.57E+05 | 9.73E+05 | 1.22E+06 | 0.00E+00 |  |  |  | 
N[C@@H](CO)C(=O)N[C@@H](Cc1ccccc1)C(=O)O [Ser-Phe] |  |  |  | 0.00E+00 | 1.38E+06 | 0.00E+00 | 4.01E+05 |  |  |  | 
CC(C)CC(N)C(=O)NC(Cc1ccccc1)C(=O)O (stereo not drawn) [Leu-Phe] (H-Leu-Phe-OH; configuration not given here) |  |  |  | 6.52E+05 | 9.44E+05 | 8.51E+05 | 0.00E+00 |  |  |  | 
CC(C)C[C@H](N)C(=O)N[C@H](C(=O)N[C@@H](CCCCN)C(=O)O)C(C)C [Leu-Val-Lys] (H-Leu-Val-Lys-OH) |  |  |  | 0.00E+00 | 3.40E+05 | 8.97E+05 | 2.22E+06 |  |  |  | 
N[C@@H](Cc1c[nH]c2ccccc12)C(=O)N[C@@H](CCC(=O)O)C(=O)O [Trp-Glu] (H-Trp-Glu-OH) |  |  |  | 0.00E+00 | 0.00E+00 | 0.00E+00 | 1.26E+07 |  |  |  | 
CC[C@H](C)[C@H](NC(=O)[C@@H](N)Cc1cnc[nH]1)C(=O)O [His-Ile] (H-His-Ile-OH) |  |  |  | 1.87E+07 | 0.00E+00 | 2.72E+07 | 2.33E+07 |  |  |  | 
N[C@@H](Cc1cnc[nH]1)C(=O)N1CCC[C@H]1C(=O)O [His-Pro] |  |  |  | 4.26E+07 | 5.51E+07 | 0.00E+00 | 8.49E+06 |  |  |  | 
CC[C@H](C)[C@H](NC(=O)[C@@H](N)Cc1ccccc1)C(=O)N[C@@H](CCCCN)C(=O)O [Phe-Ile-Lys] (H-Phe-Ile-Lys-OH) |  |  |  | 0.00E+00 | 1.05E+05 | 8.61E+05 | 7.83E+05 |  |  |  | 

More lines, main results first:

AUC0–24h ([1]; oral DHG 1000 mg/kg) | C max ([1]; oral DHG 1000 mg/kg) | T max ([1]; oral DHG 1000 mg/kg) | Peptide signal (feature intensity) in the small intestine, 30 min [3] | Peptide signal (feature intensity) in the small intestine, 60 min [3] | Peptide signal (feature intensity) in the small intestine, 120 min [3] | Peptide signal (feature intensity) in the small intestine, 240 min [3] | SMILES | Cell viability(%) in Glu-induced HT-22 cells (Glu-induced HT-22 cells; compound 25 μM) | Cell viability(%) in H2O2-induced HT-22 cells (H2O2-induced HT-22 cells) | Cell viability(%) in Glu-induced HT-22 cells (Glu-induced HT-22 cells; compound 50 μM) | other results
71.9933 ng·h/mL | 24.5331 ng/mL | 30 min |  |  |  |  | CC[C@H](C)[C@@H]1NC(=O)[C@@H]2CCCN2C1=O [cyclo(Pro-Ile)] | 58.030±5.577% | 61.087±0.749% |  | cell viability in Glu-injured HT-22 cells (Glu-induced HT-22 cells): 63.104 ± 2.519 % cell viability
7371.695 ng·h/mL and 7371.6951 ng·h/mL | 683.7471 ng/mL | 120 min |  |  |  |  | O=C1NCC(=O)N2CC(O)CC12 (centres unmarked) [cyclo(Hyp-Gly), cyclo(Gly-Hyp)] | 61.970±4.223% | 62.961±1.166% | 53.703±1.518% | C max ([1]; oral DHG): 684 ng/mL; cell viability in Glu-injured HT-22 cells (Glu-induced HT-22 cells): 63.703 ± 1.518 % cell viability; concentration in the cecum ([2]; cecum contents at 8 h): 358.966 ng/g; cecum concentration at 8 h compared with peak levels in stomach and small intestine [2]: surpassed the peak levels observed in the stomach and small intestine; concentration in the small intestine ([2]; small intestine contents at 1 h): 354.578 ng/g; concentration in the stomach ([2]; stomach contents at 0.5 h): 265.229 ng/g
2561.8131 ng·h/mL | 400.1572 ng/mL | 60 min |  |  |  |  | CC1NC(=O)C2CC(O)CN2C1=O (centres unmarked) [cyclo(Hyp-Ala)] | 54.245±1.226% |  |  | cell viability in Glu-injured HT-22 cells (Glu-induced HT-22 cells): 70.614 ± 4.85 % cell viability; cell viability in H2O2-injured HT-22 cells (H2O2-induced HT-22 cells; 50 μM, 4 h pretreatment, then 400 μM H2O2 24 h): 68.515 ± 2.290%
15547.0170 ng·h/mL | 4259.0300 ng/mL | 60 min |  |  |  |  | O=C1NCC(=O)N2CCC[C@@H]12 [cyclo(Gly-Pro)] | 54.865±0.079% | 53.985±7.459% | 58.506±3.833% | time remained detectable in serum [1]: 12 h
2126.6252 ng·h/mL | 408.1371 ng/mL | 60 min |  |  |  |  | O=C1[C@@H]2C[C@@H](O)CN2C(=O)[C@@H]2CCCN12 [cyclo(Pro-Hyp)] | 53.105±7.712% | 67.606±2.468% |  | time remained detectable in serum [1]: 24 h; cell viability in Glu-injured HT-22 cells (Glu-induced HT-22 cells): 60.071 ± 3.101 % cell viability; cecum concentration at 8 h compared with peak levels in stomach and small intestine [2]: surpassed the peak levels observed in the stomach and small intestine
176.6962 ng·h/mL | 81.2502 ng/mL | 30 min |  |  |  |  | CC(C)CC1NC(=O)C2CCCN2C1=O (centres unmarked) [cyclo(Pro-Leu)] | 52.208±0.555% | 57.413±6.700% | 55.781±2.676% | time detected in serum (FBMN) [3]: 0.5 to 4 h
301.1580 ng·h/mL | 110.4803 ng/mL | 30 min |  |  |  |  | CC(C)CC1NC(=O)C2CC(O)CN2C1=O (centres unmarked) [cyclo(Hyp-Leu)] | 53.193±5.729% | 60.867±9.188% | 53.590±3.417% | time detected in serum (FBMN) [3]: 0.5 to 4 h
487.9963 ng·h/mL | 197.3334 ng/mL | 30 min |  |  |  |  | O=C1[C@@H]2CCCN2C(=O)[C@@H]2CCCN12 [cyclo(Pro-Pro)] | 57.390±2.465% | 60.084±2.807% | 58.451±5.789% | time of decline / return to baseline in serum ([1]; serum after oral DHG): up to 8 h
201.4294 ng·h/mL | 78.4401 ng/mL | 30 min |  |  |  |  | CC(C)[C@@H]1NC(=O)[C@@H]2CCCN2C1=O [cyclo(Pro-Val)] | 57.390±2.314% | 60.019±9.124% | 58.518±3.306% | time detected in serum (FBMN) [3]: 0.5 to 4 h

Source: PMC12616683, “In Vivo Atlas of Neuroprotective Cyclic Dipeptides Derived from Food Gelatin Using Peptidomics and Feature-Based Molecular Networking” (Journal of Agricultural and Food Chemistry, 2025)
